The source of these data is patent EP4741383A1, “COMPOUND AND USE THEREOF AS ANTI-CANCER DRUG” (Tyligand Bioscience (Shanghai) Limited, priority 2023, dated 2025).

Each structure is given as a SMILES string.

The test system of the first assay is MV4-11. The assay is described as follows: CellTiter-Glo cell proliferation inhibition, MV4-11. The conditions noted are these: Homo sapiens; MV4-11 cells, 72 hours, CellTiter-Glo; read-out: IC50 (µM) M V4-11. In kind it is cell-based, human. The text has this: (§1) In this study, the CellTiter-Glo® Luminescent Cell Viability Assay kit from Promega was used to evaluate the inhibitory effects of the disclosed compounds on the proliferation of cell lines KYSE520 (a human esophageal squamous cell carcinoma cell line dependent on SHP2 for growth), MeWo (a human malignant melanoma cell line), and MV4-11 (an RTK-mutant human acute monocytic leukemia cell line).
Using essentially the same experimental materials, MV4-11 cells (Nanjing Cobio Biotechnology Co., Ltd., Catalog #CBP60522) were treated similarly: when thawing the cells, the cryovial was rapidly shaken in a 37 °C water bath to thaw within 1 minute. The thawed cell suspension was mixed with IMDM culture medium containing 10% FBS (HyClone, Catalog #SH30228.01), centrifuged at 1000 rpm for 7 minutes, and the supernatant was discarded. The cell pellet was resuspended in 5 mL of complete culture medium (IMDM medium containing 10% FBS) placed in a cell culture flask with 25 cm^2 of bottom area, and cultured in a cell culture incubator at 37 °C, 95% humidity, and 5% CO2. Cell passaging was performed when the cell density reached approximately 10^6 cells/mL. During cell passaging, the old cell suspension was thoroughly mixed, 1/5 of the cell suspension was retained, and 4 mL of new complete culture medium was added. After thorough mixing, the cells were placed back in the cell culture incubator for further culture. Cell plating was performed when the cell density again reached approximately 10^6 cells/mL. During cell plating, following the cell passage method, 1/5 of the cell suspension was retained for continued culture, and the remaining 4/5 of the cell suspension was placed in a 15 mL centrifuge tube. Cell viability was determined using the trypan blue exclusion method to ensure that cell viability was above 90%. A cell suspension with a density of 1.11 × 10^5 viable cells/mL was prepared using complete culture medium. 90 µL of the cell suspension was added to a 96-well cell culture plate, resulting in a cell density of 10000 viable cells/well. A control group without cells and without compounds, containing only complete culture medium (i.e., culture medium control) and a control group without compounds but containing cells (i.e., cell control) were set up. The cell plate was incubated overnight in the cell culture incubator. First, a 10 mM stock solution of the compound (Example compound and positive control compound 11a-1) in DMSO was serially diluted with DMSO at a 3-fold dilution, down to the 9th concentrations. A 10th concentration containing only DMSO (without the compound) was also prepared as a control. Then, the DMSO solutions containing different concentrations of the compound were diluted 100-fold with complete culture medium, resulting in a DMSO concentration of 1% in each solution. Finally, 10 µL of each solution was added to the corresponding wells of a cell culture plate, resulting in an initial compound concentration of 10 µM, with a 3-fold dilution between adjacent concentrations, and a DMSO concentration of 0.1% in the cell culture plate. The cell plate was then incubated in a cell culture incubator for 72 hours.
For endpoint detection, CellTiter-Glo reagent (Promega, catalog number #G7573, CellTiter-Glo® Luminescent Cell Viability Assay Kit) was melt and each cell plate was moved to room temperature for equilibration for 30 minutes. 75 µL (KYSE520 cells) or 50 µL (MeWo cells and MV 4-11 cells) of CellTiter-Glo was added to each well of the corresponding cell plate. The plates were shaken on a track-mounted shaker for 2 minutes to fully lyse the cells. The cell plates were kept at room temperature for 8 minutes to stabilize the luminescence signal. A multi-mode microplate reader (PerkinEImer, Envision 2105 Multimode plate Read) was used to full-wavelength scan the luminescence value of each well. […]
(In general: Cellular ATP, detected with luciferase, serves as a proxy for viable cell number.)
In general, IC50 refers to the concentration at which inhibition is half-maximal. `O=C(Nc1ccc(-c2csc(CO)c2)cc1)C(=O)Nc1ccc(-c2cc3cc(F)c(-c4nnn[nH]4)cc3n2C2CCC2)cc1` [Example 1]: the IC50 is 0.097 µM. The same measure, in the same setting: to `O=C(Nc1ccc(-c2cc3cc(F)c(-c4nnn[nH]4)cc3n2C2CCC2)cc1)C(=O)Nc1ccc(N2CC3CC(O)CC3C2)cc1` (stereo not shown) [Example 116] belongs 0.263 µM; to `CC1(O)CC2CN(c3ccc(NC(=O)C(=O)Nc4ccc(-c5cc6cc(F)c(-c7nnn[nH]7)cc6n5C5(C)CCC5)cc4)cc3)CC2C1` (stereo not shown) [Example 118], 0.131 µM; to `CC1(O)CC2(CCN(c3ccc(NC(=O)C(=O)Nc4ccc(-c5cc6cc(F)c(-c7nnn[nH]7)cc6n5C5(C)CCC5)cc4)cc3)CC2)C1` [Example 95], 0.168 µM. Same read-out and setting: to `O=C(Nc1ccc(-c2cc3cc(F)c(-c4nnn[nH]4)cc3n2C2CCC2)cc1)C(=O)Nc1ccc(N2CC3(CCCOC3)C2)cc1` [Example 55] belongs 0.177 µM.

Take `CC1(O)CCC2(CCN(c3ccc(NC(=O)C(=O)Nc4ccc(-c5cc6cc(F)c(-c7nnn[nH]7)cc6n5C5(C)CCC5)cc4)cc3)CC2)CC1` [Example 111]: the IC50 is 0.122 µM. Same read-out and setting: to `CC1(O)CC2CN(c3ccc(NC(=O)C(=O)Nc4ccc(-c5cc6cc(F)c(-c7nnn[nH]7)cc6n5C5CCC5)cc4)cc3)CC2C1` (stereo not shown) [Example 117] belongs 0.127 µM; to `CC1(n2c(-c3ccc(NC(=O)C(=O)Nc4ccc(N5CCC6(CCC(O)C6)CC5)cc4)cc3)cc3cc(F)c(-c4nnn[nH]4)cc32)CCC1` (stereo not shown) [Example 101], 0.329 µM. As for `O=C(Nc1ccc(-c2cc3cc(F)c(-c4nnn[nH]4)cc3n2C2CCC2)cc1)C(=O)Nc1ccc(N2CCC3(COC3)C2)cc1` [Example 59], the IC50 was 0.213 µM. The same measure, in the same setting: in the case of `O=C(Nc1ccc(-c2cc3cc(F)c(-c4nnn[nH]4)cc3n2C2CCC2)cc1)C(=O)Nc1ccc(N2CCC3(CCCOC3)CC2)cc1` [Example 74] it was 0.129 µM; in that of `N#CCc1cc(-c2ccc(NC(=O)C(=O)Nc3ccc(-c4cc5cc(F)c(-c6nnn[nH]6)cc5n4C4CCC4)cc3)cc2)cs1` [Example 2], 0.216 µM; in that of `O=C(Nc1ccc(-c2cc3cc(F)c(-c4nnn[nH]4)cc3n2C2CCC2)cc1)C(=O)Nc1ccc(N2CCC(CCO)C2)cc1` (stereo not shown) [Example 14], 0.155 µM.

Take `O=C(Nc1ccc(-c2cc3cc(F)c(-c4nnn[nH]4)cc3n2C2CCC2)cc1)C(=O)Nc1ccc(N2CCC3(CCCOC3)C2)cc1` (stereo not shown) [Example 62]: the IC50 amounted to 0.202 µM. With `COC1CC(n2c(-c3ccc(NC(=O)C(=O)Nc4ccc(N5CCC6(CCC(O)C6)CC5)cc4)cc3)cc3cc(F)c(-c4nnn[nH]4)cc32)C1` (stereo not shown) [Example 103], the IC50 was 0.124 µM. Same read-out and setting: in the case of `CC1(n2c(-c3ccc(NC(=O)C(=O)Nc4ccc(N5CCC(CCO)CC5)cc4)cc3)cc3cc(F)c(-c4nnn[nH]4)cc32)CCC1` [Example 26] it was 0.129 µM. On to `CC1(CO)CCN(c2ccc(NC(=O)C(=O)Nc3ccc(-c4cc5cc(F)c(-c6nnn[nH]6)cc5n4C4CCC4)cc3)cc2)C1` (stereo not shown) [Example 16], for which the IC50 came to 0.137 µM. Same read-out and setting: in the case of `CC1(O)CCC2(CC1)CN(c1ccc(NC(=O)C(=O)Nc3ccc(-c4cc5cc(F)c(-c6nnn[nH]6)cc5n4C4CCC4)cc3)cc1)C2` [Example 83] it was 0.133 µM; in that of `CC(O)C1CCN(c2ccc(NC(=O)C(=O)Nc3ccc(-c4cc5cc(F)c(-c6nnn[nH]6)cc5n4C4CCC4)cc3)cc2)CC1` (stereo not shown) [Example 29], 0.13 µM; in that of `CC1(n2c(-c3ccc(NC(=O)C(=O)Nc4ccc(N5CCC6(CCC(O)CC6)CC5)cc4)cc3)cc3cc(F)c(-c4nnn[nH]4)cc32)CCC1` [Example 109], 0.243 µM.

The subject of a further assay is MeWo. The assay is described as follows: CellTiter-Glo cell proliferation inhibition, MeWo. The format is cell-based, human. The conditions noted are these: Homo sapiens, MeWo, 72 h, MeWo cells, CellTiter-Glo. Here is the method:
as §1
Using essentially the same experimental materials, MeWo cells (ATCC, catalog #HTB-65) were treated similarly: when thawing the cells, the cryovial was rapidly shaken in a 37 °C water bath to thaw the cells within 1 minute. The thawed cell suspension was mixed with MEM/EBSS culture medium containing 10% FBS (HyClone, catalog #SH30024.01), centrifuged at 1000 rpm for 5 minutes, and the supernatant was discarded. The cell pellet was resuspended in 5 mL of complete culture medium (MEM/EBSS medium containing 10% FBS), placed in a cell culture flask with 25 cm^2 of bottom area, and cultured in a cell culture incubator at 37 °C, 95% humidity, and 5% CO2. Cell passaging was performed when the cell confluence reached approximately 80%. During cell passaging, the old culture medium was discarded, the cells were washed once with DPBS, and 1 mL of trypsin was added to digest the cells. When the cells dispersed into single cells and detached from the bottom of the cell culture flask, 3 mL of new complete culture medium was added to stop the digestion. After thoroughly mixing the cell suspension, 1/5 of the cell suspension was retained, 5 mL of new complete culture medium was added, and after thorough mixing, the cells were placed in a cell culture flask for further culture. Cell plating was performed when the cell confluence again reached approximately 80%. During cell plating, following the cell passaging method, 1/5 of the cell suspension was retained for further culture, and the remaining 4/5 of the cell suspension was placed in a 15 mL centrifuge tube. Cell viability was determined using the trypan blue exclusion method to ensure that cell viability was above 90%. A cell suspension with a density of 2.22 × 10^4 cells/mL was prepared using MEM/EBSS culture medium containing 5% FBS. 90 µL of the cell suspension was added to a 96-well cell culture plate, resulting in a cell density of 2000 viable cells/well in the cell culture plate. A control group without cells and without compounds, containing only complete culture medium (i.e., culture medium control), and a control group without compounds but containing cells (i.e., cell control) were set up. The cell plate was cultured overnight in the cell culture incubator. First, a 10 mM stock solution of the compound (Example compound and positive control compound 11a-1) in DMSO was serially diluted with DMSO at a 3-fold dilution, down to the 9th concentration. A 10th concentration containing only DMSO (without the compound) was also prepared as a control. Then, the DMSO solutions containing different concentrations of the compound were diluted 100-fold with complete culture medium, resulting in a 1% DMSO concentration in each solution. Finally, 10 µL of each solution was added to the corresponding wells of the cell culture plate, resulting in a starting compound concentration of 10 µM, with a 3-fold dilution between adjacent concentrations, and a 0.1% DMSO concentration in the cell culture plate. The cell plates were then incubated in a cell culture incubator for 72 hours.
For endpoint detection, CellTiter-Glo reagent (Promega, catalog number #G7573, CellTiter-Glo® Luminescent Cell Viability Assay Kit) was melt and each cell plate was moved to room temperature for equilibration for 30 minutes. 75 µL (KYSE520 cells) or 50 µL (MeWo cells and MV 4-11 cells) of CellTiter-Glo was added to each well of the corresponding cell plate. The plates were shaken on a track-mounted shaker for 2 minutes to fully lyse the cells. The cell plates were kept at room temperature for 8 minutes to stabilize the luminescence signal. […]
`O=C(Nc1ccc(-c2csc(CO)c2)cc1)C(=O)Nc1ccc(-c2cc3cc(F)c(-c4nnn[nH]4)cc3n2C2CCC2)cc1` [Example 1]: the IC50 stood at 0.032 µM.

As to `O=C(Nc1ccc(-c2cc3cc(F)c(-c4nnn[nH]4)cc3n2C2CCC2)cc1)C(=O)Nc1ccc(N2CC3CC(O)CC3C2)cc1` (stereo not shown) [Example 116], the IC50 stood at 0.067 µM. Same read-out and setting: in the case of `Cn1cc(-c2ccc(NC(=O)C(=O)Nc3ccc(-c4cc5cc(F)c(-c6nnc(C(F)(F)F)[nH]6)cc5n4C4CCC4)cc3)cc2)cn1` [Example 124] it was 1.55 µM. Still for that read-out and setting: to `O=C(Nc1ccc(-c2ccsc2)cc1)C(=O)Nc1ccc(-c2sc3cc(F)c(-c4nnn[nH]4)cc3c2C2CCC2)cc1` [Example 133] belongs 0.686 µM; to `O=C(Nc1ccc(-c2ccsc2)cc1)C(=O)Nc1ccc(-c2oc3cc(F)c(-c4nnn[nH]4)cc3c2C2CCC2)cc1` [Example 130], 0.162 µM; to `O=C(Nc1ccc(-c2ccsc2)cc1)C(=O)Nc1ccc(-c2cc3cc(F)c(-c4nnn[nH]4)nc3n2C2CCC2)cc1` [Example 132], 0.291 µM. On the same count and under the same terms, to `O=C(Nc1ccc(-c2ccsc2)cc1)C(=O)Nc1ccc(-c2cc3ccc(-c4nnn[nH]4)cc3n2C2CCC2)cc1` [Example 122] belongs 0.409 µM; to `O=C(Nc1ccc(-c2cc3cc(F)c(-c4nnn[nH]4)cc3n2C2CC2)cc1)C(=O)Nc1ccc(N2CCC3(CCOC3)CC2)cc1` [Example 69], 0.093 µM; to `Cn1cc(-c2ccc(NC(=O)C(=O)Nc3ccc(-c4cc5cc(F)c(-c6noc(=O)[nH]6)cc5n4C4CCC4)cc3)cc2)cn1` [Example 123], 0.118 µM.

The same assay, now with this note: Homo sapiens; MeWo cells, 72 hours, CellTiter-Glo.
On to `O=C(Nc1ccc(-c2ccsc2)cc1)C(=O)Nc1ccc(-c2cc3ccc(-c4nnn[nH]4)nc3n2C2CCC2)cc1` [Example 129], for which the midpoint of inhibition, the IC50, lay at 0.176 µM. Still for that read-out and setting: to `O=C(Nc1ccc(-c2ccsc2)cc1)C(=O)Nc1ccc(-c2cc3cc(F)c(-c4nnn[nH]4)c(F)c3n2C2CCC2)cc1` [Example 134] belongs 0.27 µM; to `O=C(Nc1ccc(-c2oc3cc(F)c(-c4nnn[nH]4)cc3c2C2CCC2)cc1)C(=O)Nc1ccc(N2CCC3(CCOC3)CC2)cc1` [Example 125], 0.764 µM.
